Reference: US11672786B2, “Methods of treating diseases associated with repeat instability” (The Hospital for Sick Children, priority 2016, dated 2023)

System: CASK, ATXN8, and Mfd15 loci in HT1080-(CAG)850 cells
Test: repeat-tract lengths of non-expanded loci in HT1080-(CAG)850 cells
Type: cell-based, human
Details: 30 days incubation with or without NA
From the text: FIG. 5 are results from experiments showing that NA induces CAG contractions in HT1080-(CAG)850 cells, independent of proliferation, dependent upon rCAG transcription. […] Panel B of FIG. 5 are histograms showing repeat length distributions in HT1080-(CAG)850 cells. Frequency distribution of unstable alleles is shown by gray bars. Frequency of stable alleles is shown by black bars. To facilitate comparisons, a dashed line indicates the unchanged CAG size. Allele lengths are grouped in bins spanning 50 repeats. […] More than 50 alleles were sized for each group. P-value was calculated by chi-square test (Table 2). […] P-value was calculated by Student's t-test. […] Repeat length distributions and average repeat size changes are shown. […] Quantitative reverse transcription (RT)-PCR was performed using TaqMan Gene Expression assays. […]
Genomic DNA was extracted from HT1080-(CAG)850 clones and HD primary fibroblasts using the Gentra Puregene Cell Kit (Qiagen, Valencia, Calif.). […] At least 50 alleles were analyzed for each of the three experiments (more than 150 alleles for a total study). […] For the histograms in FIGS. 4D, 4E, 10, 11, 5B, 5D, 5E, 14 and 15B, the Y-axis, “% of repeat population” was calculated by determining the proportion of >50 individual small-pool PCR reactions across the CAG repeat tract, that harbored a certain size of repeat product with a certain length. […]

## naphthyridine-azaquinolone
  length variation at CASK, ATXN8, and Mfd15 loci: Length variation was not observed
